Assay results reported in patent publication EP1169044B1, “USE OF FUCOSYLATED SIALYLATED N-ACETYL LACTOSAMINE CARBOHYDRATE STRUCTURES FOR INHIBITION OF BACTERIAL ADHERENCE” (Borén, Thomas, priority 1999, dated 2000).

Legend:
Assay type in all cases: binding, Helicobacter pylori
H. pylori strains = assay: radio immuno analysis (RIA) with 125I-labelled neoglycoconjugates; conditions: strains of Fig. 4 (BabA2 mutant, babA1A2 mutant, CCUG 17875, CCUG 17874), 400 ng conjugate, 30 min
Description: Bars, from the left to the right; The sialyl-alfa2.61actose-, sialyl-alfa2.31actose-, sialyl-Lewis a-, sialyl-Lewis x-, and Lewis b-, synthesised sialyl-Lewis x- sialyl-acetyllactosaminee, both with a either a 3 carbon or 14 carbon (extended/hydrophilic) spacer, conjugated to albumin, Finally, the histo-blood group antigen Lewis y (synthesised penta-saccharide) (V. Behar and S.J. Danishefsky, Angew. Chem. Int. Ed. Engi, 1994, 33, no. 14, 1468.), was analysed as a neo-glycoconjugate.
The sialyl-alfa2.3lactose-, sialyl-alfa2.61actose-, sialyl-Lewis a-, and Lewis b-oligosaccharide antigens used for neoglycoconjugate preparations were purified by HPLC, structurally identified and characterized with NMR-spectroscopy, and more than 95% pure. These conjugates were attached to albumin with an APD (acetylphenylenediamine) spacer attached to the carbohydrate by reductive animation and thus the terminal reducing monosaccharide unit of the oligosaccharide is reduced and is present as an aminoalditol, IsoSep AB, Tullinge, Sweden (T. Borén, P. Falk, K. A. Roth, G. Larson, and S. Normark, Science. 262, 1892 (1993), P. D. Rye, Nature Biotechnology 2, 155 (1996)). The synthesised sialyl-Lewis x- tetrasaccharide antigen was conjugated to albumin with the MPE (mercaptopropionyl-amidoethyl) -spacer, IsoSep AB. Synthesised sialyl-Lewis x-tetrasaccharide and sialyl-acetyllactosaminee, both with a either a 3 carbon or 14 carbon (extended/hydrophilic) spacer, conjugated to albumin, were obtained from Dextra Laboratories, Reading, UK. The RIA (Fig. 4) was performed according to (P. Falk, T. Borén, D. Haslam, M. G. Caparon, Meth. Cell Biol. 45, 161 (1994)) with minor modifications; the glycoconjugates were ^125I-labelled by the Chloramine T method. 1 ml of bacteria (A600= OD 0.10) was incubated with 400 ng of ^125I-labelled conjugate (that is an excess of receptor substrate) for 30 min. in phosphate buffered saline (PBS), 0.5 % albumin, 0.05 % Tween-20 (BB-buffer). After centrifugation, the ^125I-activity bound to the bacterial pellet was measured by gamma scintillation counting. Binding experiments were reproducible and performed in triplets. In addition, the level of binding-activity within the strain was stabile.

[1] = tested on: 91 Swedish clinical H. pylori isolates; conditions: out of 91 clinical isolates
Description: Bacteria were grown at 37°C in 10 % CO2 and 5% O2 (T. Borén, P. Falk, K. A. Roth, G. Larson, and S. Normark, Science.. 262, 1892(1993), for 2 days for optimal Le b antigen binding activity.

[2] = tested on: CCUG 17875 and the babA1A2 double mutant; assay: H. pylori adherence to immobilized neoglycoconjugates in ELISA; conditions: strain not specified (CCUG 17875 and babA1A2 double mutant tested)
Description: CCUG 17875 (75) and the babA1A2 double mutant (DM) were added to the ELISA in a series labelled A-F. Adherent bacteria were detected by polyclonal rabbit antisera against H. pylori CCUG 17875. The products of the horseradish peroxidase reaction were quantified in a microtiter plate reader.
Sialyl-Lewis a-PAA, sialyl-Lewis x-PAA, 3'-HSO3-Lewis a-PAA, and 3'-HSO3-Lewis x-PAA, i.e. synthesised sialylated or sulphated Lewis antigens conjugated to polyacrylamide backbone were obtained from Syntesome GmbH, Munchen, Germany. The conjugates were added in dilution series of 1µg, 100ng, and 10 ng, in 90µl 1% BSA PBS 0.05% Tween, to streptavidin coated microtiter (ELISA) plates (Roche Diagnostics Scandinavia AB, Bromma, Sweden). After one hour of incubation in room temperature, the plate was blocked over night at 4°C, with 500ng biotinylated albumin in 300µl 1% BSA PBS 0.005% Tween. […] Adherent bacteria were detected by polyclonal rabbit antisera at a dilution of 1:3000, raised against formalin fixed bacteria of strain CCUG 17875 in New Zealand rabbits (Agrisera AB, Vännäsby, Sweden) The antibodies were allowed to incubate in 1% BSA in PBS 0.05% Tween for 30 minutes at room temperature. […] The products of the horseradish peroxidase reaction were quantified in a microtiter plate reader at 490 nm.

`CC(=O)NC1C(OC2C(O)C(O)OC(CO)C2O)OC(CO)C(OC2OC(CO)C(O)C(O)C2OC2OC(C)C(O)C(O)C2O)C1OC1OC(C)C(O)C(O)C1O` (centres unmarked) [Lewis y penta-saccharide antigen, Fucα2Galβ4GlcNAcβ3Gal 3 Fucα1] was tested, and the “binding of 125I-labelled neoglycoconjugate (in words)” value (H. pylori strains) was “did not demonstrate any binding activity”, the “binding of 125I-labelled neoglycoconjugate (in words)” value (H. pylori strains; listed as Lewis y pentasacharide antigen) was “did not detect any binding activity” and the “number of isolates that bound the neoglycoconjugate antigen” value [1] was “None”.

In the case of “HSO3-3Galβ4GlcNAcβ3Galβ4Glc 3 Fucα1 [3'HSO3Lewis x]”, the “binding to immobilised antigen in ELISA (in words)” value [2] is reported as “no binding above background”.

For “HSO3-3Galβ3GlcNAcβ3Galβ4Glc 4 Fucα1 [3'HSO3Lewis a]”, the “binding to immobilised antigen in ELISA (in words)” value [2] was “no binding above background”.
